Legend:
Trifoliumre pensL. = test: Post-emergence herbicidal activity test (stem and leaf spray, pot culture); format: in vivo; conditions: 3 weeks after spraying
Summary of the method: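 Rates of 10, 5 and 2.5 g/mu were applied in a single spray-tower treatment to 2–3-leaf plants, thinned to 10 per pot. Formulation: acetone solution, Tween 80, 1.5 L/ha methyl oleate synergist. Weed response assessed after 3 further greenhouse weeks; mean of three experiments.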

Setaria viridis = test: as above; format: in vivo; conditions: 3 weeks after spraying
Summary of the method: (§1)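 Pot-grown weeds in loam (pH 7, 1.63% organic matter) were spray-treated on stems and leaves at the 2- to 3-leaf stage with compound in acetone/Tween 80 plus 1.5 liters/ha methyl oleate at 10, 5 or 2.5 g/mu. Fresh-weight growth control was scored 3 weeks later as grades 0–5.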

Portulaca oleracea = test: as above; format: in vivo; conditions: 3 weeks after spraying
Summary of the method: as §1

Abutilon theophrasti = test: as above; format: in vivo; conditions: 3 weeks after spraying
Summary of the method: as §1

Echinochloa crusgalli = test: as above; format: in vivo; conditions: 3 weeks after spraying
Summary of the method: as §1

Amaranthus retroflexus = test: as above; format: in vivo; conditions: 3 weeks after spraying
Summary of the method: as §1

Row | Structure (SMILES) | Post-emergence herbicidal activity, Trifoliumre pensL. (grade) (Trifoliumre pensL.; dosage 2.5 g/mu) | Post-emergence herbicidal activity, Trifoliumre pensL. (grade) (Trifoliumre pensL.; dosage 5 g/mu) | Post-emergence herbicidal activity, Trifoliumre pensL. (grade) (Trifoliumre pensL.; dosage 10 g/mu) | Post-emergence herbicidal activity, S. viridis (grade) (Setaria viridis; dosage 2.5 g/mu) | Post-emergence herbicidal activity, S. viridis (grade) (Setaria viridis; dosage 5 g/mu) | Post-emergence herbicidal activity, S. viridis (grade) (Setaria viridis; dosage 10 g/mu) | Post-emergence herbicidal activity, P. oleracea (grade) (Portulaca oleracea; dosage 2.5 g/mu) | Post-emergence herbicidal activity, P. oleracea (grade) (Portulaca oleracea; dosage 5 g/mu) | Post-emergence herbicidal activity, P. oleracea (grade) (Portulaca oleracea; dosage 10 g/mu) | Post-emergence herbicidal activity, A. theophrasti (grade) (Abutilon theophrasti; dosage 2.5 g/mu) | Post-emergence herbicidal activity, A. theophrasti (grade) (Abutilon theophrasti; dosage 5 g/mu) | Post-emergence herbicidal activity, A. theophrasti (grade) (Abutilon theophrasti; dosage 10 g/mu) | Post-emergence herbicidal activity, E. crusgalli (grade) (Echinochloa crusgalli; dosage 2.5 g/mu) | Post-emergence herbicidal activity, E. crusgalli (grade) (Echinochloa crusgalli; dosage 5 g/mu) | Post-emergence herbicidal activity, E. crusgalli (grade) (Echinochloa crusgalli; dosage 10 g/mu) | Post-emergence herbicidal activity, A. retroflexus (grade) (Amaranthus retroflexus; dosage 2.5 g/mu) | Post-emergence herbicidal activity, A. retroflexus (grade) (Amaranthus retroflexus; dosage 5 g/mu) | Post-emergence herbicidal activity, A. retroflexus (grade) (Amaranthus retroflexus; dosage 10 g/mu) | melting point
1 | COc1ccc(C(=O)COc2cc(N3C(=O)C4=C(CCCC4)C3=O)c(F)cc2Cl)cc1 [Compound C13, 2-(4-chloro-2-fluoro-5-(2-oxo-2-(4-methoxyphenyl)ethoxy)phenyl)-4,5,6,7-tetrahydro-1H-isoindole-1,3(2H)-dione] | 5 (Grade 5: the growth control rate is greater than or equal to 85%) | 5 (Grade 5: the growth control rate is greater than or equal to 85%) | 5 (Grade 5: the growth control rate is greater than or equal to 85%) | 2 (Grade 2: the growth control rate is greater than or equal to 20% and less than 40%) | 3 (Grade 3: the growth control rate is greater than or equal to 40% and less than 60%) | 4 (Grade 4: the growth control rate is greater than or equal to 60% and less than 85%) | 5 (Grade 5: the growth control rate is greater than or equal to 85%) | 5 (Grade 5: the growth control rate is greater than or equal to 85%) | 5 (Grade 5: the growth control rate is greater than or equal to 85%) | 5 (Grade 5: the growth control rate is greater than or equal to 85%) | 5 (Grade 5: the growth control rate is greater than or equal to 85%) | 5 (Grade 5: the growth control rate is greater than or equal to 85%) | 1 (Grade 1: the growth control rate is greater than or equal to 5% and less than 20%) | 2 (Grade 2: the growth control rate is greater than or equal to 20% and less than 40%) | 3 (Grade 3: the growth control rate is greater than or equal to 40% and less than 60%) | 5 (Grade 5: the growth control rate is greater than or equal to 85%) | 5 (Grade 5: the growth control rate is greater than or equal to 85%) | 5 (Grade 5: the growth control rate is greater than or equal to 85%) | 151 to 153 °C
2 | O=C(COc1cc(N2C(=O)C3=C(CCCC3)C2=O)c(F)cc1Cl)c1ccc(Br)cc1 [Compound C14, 2-(4-chloro-2-fluoro-5-(2-oxo-2-(4-bromophenyl)ethoxy)phenyl)-4,5,6,7-tetrahydro-1H-isoindole-1,3(2H)-dione] | 5 (Grade 5: the growth control rate is greater than or equal to 85%) | 5 (Grade 5: the growth control rate is greater than or equal to 85%) | 5 (Grade 5: the growth control rate is greater than or equal to 85%) | 2 (Grade 2: the growth control rate is greater than or equal to 20% and less than 40%) | 3 (Grade 3: the growth control rate is greater than or equal to 40% and less than 60%) | 4 (Grade 4: the growth control rate is greater than or equal to 60% and less than 85%) | 5 (Grade 5: the growth control rate is greater than or equal to 85%) | 5 (Grade 5: the growth control rate is greater than or equal to 85%) | 5 (Grade 5: the growth control rate is greater than or equal to 85%) | 5 (Grade 5: the growth control rate is greater than or equal to 85%) | 5 (Grade 5: the growth control rate is greater than or equal to 85%) | 5 (Grade 5: the growth control rate is greater than or equal to 85%) | 1 (Grade 1: the growth control rate is greater than or equal to 5% and less than 20%) | 2 (Grade 2: the growth control rate is greater than or equal to 20% and less than 40%) | 3 (Grade 3: the growth control rate is greater than or equal to 40% and less than 60%) | 5 (Grade 5: the growth control rate is greater than or equal to 85%) | 5 (Grade 5: the growth control rate is greater than or equal to 85%) | 5 (Grade 5: the growth control rate is greater than or equal to 85%) | 183 to 185 °C
3 | Cc1ccc(C(=O)COc2ccc(N3C(=O)C4=C(CCCC4)C3=O)c(F)c2)cc1 [Compound C15, 2-(2-fluoro-4-(2-oxo-2-(4-tolyl)ethoxy)phenyl)-4,5,6,7-tetrahydro-1H-isoindole-1,3(2H)-dione] | 5 (Grade 5: the growth control rate is greater than or equal to 85%) | 5 (Grade 5: the growth control rate is greater than or equal to 85%) | 5 (Grade 5: the growth control rate is greater than or equal to 85%) | 2 (Grade 2: the growth control rate is greater than or equal to 20% and less than 40%) | 3 (Grade 3: the growth control rate is greater than or equal to 40% and less than 60%) | 4 (Grade 4: the growth control rate is greater than or equal to 60% and less than 85%) | 5 (Grade 5: the growth control rate is greater than or equal to 85%) | 5 (Grade 5: the growth control rate is greater than or equal to 85%) | 5 (Grade 5: the growth control rate is greater than or equal to 85%) | 5 (Grade 5: the growth control rate is greater than or equal to 85%) | 5 (Grade 5: the growth control rate is greater than or equal to 85%) | 5 (Grade 5: the growth control rate is greater than or equal to 85%) | 1 (Grade 1: the growth control rate is greater than or equal to 5% and less than 20%) | 2 (Grade 2: the growth control rate is greater than or equal to 20% and less than 40%) | 3 (Grade 3: the growth control rate is greater than or equal to 40% and less than 60%) | 5 (Grade 5: the growth control rate is greater than or equal to 85%) | 5 (Grade 5: the growth control rate is greater than or equal to 85%) | 5 (Grade 5: the growth control rate is greater than or equal to 85%) | 144 to 146 °C
4 | CC(=O)Nc1cc(N2C(=O)C3=C(CCCC3)C2=O)c(F)cc1Cl [Compound D1, N-(2-chloro-5-(1,3-dioxo-1,3,4,5,6,7-hexahydro-2H-isoindole-2-yl)-4-fluorophenyl)acetamide] | – | – | 5 (Grade 5: the growth control rate is greater than or equal to 85%) | – | – | 4 (Grade 4: the growth control rate is greater than or equal to 60% and less than 85%) | – | – | 5 (Grade 5: the growth control rate is greater than or equal to 85%) | – | – | 5 (Grade 5: the growth control rate is greater than or equal to 85%) | – | – | 3 (Grade 3: the growth control rate is greater than or equal to 40% and less than 60%) | – | – | 5 (Grade 5: the growth control rate is greater than or equal to 85%) | 155 to 157 °C
5 | C/C=C/C(=O)Nc1cc(N2C(=O)C3=C(CCCC3)C2=O)c(F)cc1Cl [Compound D5, (E)-N-(2-chloro-5-(1,3-dioxo-1,3,4,5,6,7-hexahydro-2H-isoindole-2-yl)-4-fluorophenyl)but-2-enamide] | – | – | 5 (Grade 5: the growth control rate is greater than or equal to 85%) | – | – | 4 (Grade 4: the growth control rate is greater than or equal to 60% and less than 85%) | – | – | 5 (Grade 5: the growth control rate is greater than or equal to 85%) | – | – | 5 (Grade 5: the growth control rate is greater than or equal to 85%) | – | – | 3 (Grade 3: the growth control rate is greater than or equal to 40% and less than 60%) | – | – | 5 (Grade 5: the growth control rate is greater than or equal to 85%) | 133 to 138 °C

— patent US20240300932A1, “N-PHENYLIMINE DERIVATIVE AND PREPARATION METHOD AND USE THEREOF” (Guizhou University, priority 2023, published 2024)
